Assays:
[1] = Absorption characteristic of NIR dye in dichloromethane; assay type: physicochemical
Description: The obtained NIR dyes were each dissolved in dichloromethane, and an ultraviolet-visible spectrophotometer (manufactured by Hitachi High Technologies Co., Ltd., U-4100 type) was used to measure each spectral transmittance curve, from which a maximum absorption wavelength λmax, a wavelength λ80 at which the transmittance becomes 80% on a shorter wavelength side than the maximum absorption wavelength with the transmittance at the maximum absorption wavelength set to 10%, a difference between the maximum absorption wavelength λmax and the wavelength λ80 (λmax−λ80), a maximum absorption constant εA in light of a wavelength range of 430 to 550 nm, a maximum absorption constant εB in light of a wavelength range of 670 to 730 nm, and a ratio of these (εB/εA) were calculated. Note that the U-4100 type was used for the measurement of spectral transmittance curves in each of the following examples.

[2] = Solubility of NIR dye to resin solution; assay type: physicochemical; conditions: stirred two hours; for Solubility evaluation, Polyimide resin: 12.5 mass % C3450 in cyclohexanone:NMP=1:1, 50° C.; for Solubility evaluation, Polyester resin: 12.5 mass % OKP850 in cyclohexanone:NMP=1:1, 50° C.; for Solubility evaluation, Polyethersulfone resin: 12.5 mass % PES4800 in cyclohexanone:NMP=1:1, 50° C.
Method: Results are illustrated in Table 8 together with the kinds of the used dyes. Note that the temperature of the resin solution in the solubility test was set to 50° C., the NIR dye was put into the resin solution, the resultant resin solution was stirred for two hours, and the presence/absence of occurrence of the dissolution was observed visually. Evaluation criteria of the solubility are as follows.
A: Solubility of 9 mass % or more
B: Solubility of 7 mass % or more and less than 9 mass %
C: Solubility of 5 mass % or more and less than 7 mass %
D: Solubility of 3 mass % or more and less than 5 mass %
E: Solubility of 1 mass % or more and less than 3 mass %
F: Solubility of less than 1 mass %

| SMILES | εA (maximum absorption constant, 430 to 550 nm) [1] | εB (maximum absorption constant, 670 to 730 nm) [1] | εB/εA [1] | λ80 (wavelength of 80% transmittance, shorter side of λmax, transmittance at λmax set to 10%) [1] [nm] | λmax (maximum absorption wavelength) [1] [nm] | λmax-λ80 [1] [nm] | Solubility evaluation, Polyimide resin [2] | Solubility evaluation, Polyester resin [2] | Solubility evaluation, Polyethersulfone resin [2] |
| --- | --- | --- | --- | --- | --- | --- | --- | --- | --- |
| COC(=O)Nc1cc2c(cc1C1=C([O-])C(=c3cc4c(cc3NC(=O)OC)=[N+](C)C(C)C4(C)C)C1=O)C(C)(C)C(C)N2C (stereo not drawn) [A1-1] | 0.014 | 1 | 71.1 | 632 | 691 | 59 | E (1 mass % or more and less than 3 mass %) | D (3 mass % or more and less than 5 mass %) | E (1 mass % or more and less than 3 mass %) |
| CCCOC(=O)Nc1cc2c(cc1C1=C([O-])C(=c3cc4c(cc3NC(=O)OCCC)=[N+](C)C(C)C4(C)C)C1=O)C(C)(C)C(C)N2C (stereo not drawn) [A1-2] | 0.017 | 1 | 59.0 | 633 | 691 | 58 | A (9 mass % or more) | A (9 mass % or more) | A (9 mass % or more) |
| CCCCCOC(=O)Nc1cc2c(cc1C1=C([O-])C(=c3cc4c(cc3NC(=O)OCCCCC)=[N+](C)C(C)C4(C)C)C1=O)C(C)(C)C(C)N2C (stereo not drawn) [A1-3] | 0.013 | 1 | 77.5 | 633 | 691 | 58 | A (9 mass % or more) | A (9 mass % or more) | A (9 mass % or more) |
| CCCCC(CC)COC(=O)Nc1cc2c(cc1C1=C([O-])C(=c3cc4c(cc3NC(=O)OCC(CC)CCCC)=[N+](C)C(C)C4(C)C)C1=O)C(C)(C)C(C)N2C (stereo not drawn) [A1-4] | 0.019 | 1 | 53.5 | 632 | 690 | 58 | A (9 mass % or more) | A (9 mass % or more) | A (9 mass % or more) |
| CCCc1ccc(OC(=O)Nc2cc3c(cc2C2=C([O-])C(=c4cc5c(cc4NC(=O)Oc4ccc(CCC)cc4)=[N+](C)C(C)C5(C)C)C2=O)C(C)(C)C(C)N3C)cc1 (stereo not drawn) [A1-5] | 0.016 | 1 | 63.9 | 636 | 693 | 57 | F (Less than 1 mass %) | F (Less than 1 mass %) | F (Less than 1 mass %) |
| CCCOC(=O)Nc1cc2c(cc1C1=C([O-])C(=c3cc4c(cc3NC(=O)OCCC)=[N+](C(C)C)C(C)C4(C)C)C1=O)C(C)(C)C(C)N2C(C)C (stereo not drawn) [A1-6] | 0.016 | 1 | 63.9 | 647 | 697 | 50 | A (9 mass % or more) | A (9 mass % or more) | A (9 mass % or more) |
| CCCCCOC(=O)Nc1cc2c(cc1C1=C([O-])C(=c3cc4c(cc3NC(=O)OCCCCC)=[N+](C(C)C)C(C)C4(C)C)C1=O)C(C)(C)C(C)N2C(C)C (stereo not drawn) [A1-7] | 0.016 | 1 | 61.8 | 647 | 697 | 50 | A (9 mass % or more) | A (9 mass % or more) | A (9 mass % or more) |
| CC(C)OC(=O)Nc1cc2c(cc1C1=C([O-])C(=c3cc4c(cc3NC(=O)OC(C)C)=[N+](C(C)C)C(C)C4(C)C)C1=O)C(C)(C)C(C)N2C(C)C (stereo not drawn) [A1-8] | 0.017 | 1 | 60.2 | 647 | 697 | 50 | A (9 mass % or more) | A (9 mass % or more) | A (9 mass % or more) |
| CCCc1ccc(OC(=O)Nc2cc3c(cc2C2=C([O-])C(=c4cc5c(cc4NC(=O)Oc4ccc(CCC)cc4)=[N+](C(C)C)C(C)C5(C)C)C2=O)C(C)(C)C(C)N3C(C)C)cc1 (stereo not drawn) [A1-9] | 0.013 | 1 | 75.7 | 651 | 700 | 49 | E (1 mass % or more and less than 3 mass %) | E (1 mass % or more and less than 3 mass %) | E (1 mass % or more and less than 3 mass %) |
| CCCOC(=O)Nc1cc2c(cc1C1=C([O-])C(=c3cc4c(cc3NC(=O)OCCC)=[N+](C(C)(C)CC)C(C)C4(C)C)C1=O)C(C)(C)C(C)N2C(C)(C)CC (stereo not drawn) [A1-10] | 0.018 | 1 | 55.5 | 658 | 705 | 47 | A (9 mass % or more) | A (9 mass % or more) | A (9 mass % or more) |
| CCCCCOC(=O)Nc1cc2c(cc1C1=C([O-])C(=c3cc4c(cc3NC(=O)OCCCCC)=[N+](C(C)(C)CC)C(C)C4(C)C)C1=O)C(C)(C)C(C)N2C(C)(C)CC (stereo not drawn) [A1-11] | 0.016 | 1 | 61.3 | 658 | 705 | 47 | A (9 mass % or more) | A (9 mass % or more) | A (9 mass % or more) |
| CCCOC(=O)Nc1cc2c(cc1C1=C([O-])C(=c3cc4c(cc3NC(=O)OCCC)=[N+](C(C)(CC)CC)C(C)C4(C)C)C1=O)C(C)(C)C(C)N2C(C)(CC)CC (stereo not drawn) [A1-12] | 0.017 | 1 | 59.7 | 656 | 707 | 51 | A (9 mass % or more) | A (9 mass % or more) | A (9 mass % or more) |
| CCCCCOC(=O)Nc1cc2c(cc1C1=C([O-])C(=c3cc4c(cc3NC(=O)OCCCCC)=[N+](C(C)(CC)CC)C(C)C4(C)C)C1=O)C(C)(C)C(C)N2C(C)(CC)CC (stereo not drawn) [A1-13] | 0.019 | 1 | 51.8 | 659 | 707 | 48 | A (9 mass % or more) | A (9 mass % or more) | A (9 mass % or more) |
| CCCCC(CC)C(=O)Nc1cc2c(cc1C1=C([O-])C(=c3cc4c(cc3NC(=O)C(CC)CCCC)=[N+](C(C)C)C(C)C4(C)C)C1=O)C(C)(C)C(C)N2C(C)C (stereo not drawn) [A3, reference compound] | 0.020 | 1 | 49.1 | 656 | 706 | 50 |  |  |  |
| CCCCCCCOc1ccc(C(=O)Nc2cc3c(cc2C2=C([O-])C(=c4cc5c(cc4NC(=O)c4ccc(OCCCCCCC)cc4)=[N+](C(C)C)C(C)C5(C)C)C2=O)C(C)(C)C(C)N3C(C)C)cc1 (stereo not drawn) [A4, reference compound] | 0.029 | 1 | 34.7 | 659 | 710 | 51 |  |  |  |

Reference: patent US11693163B2, “Optical filter and imaging device” (AGC Inc., priority 2015, dated 2023)
